Data on seven compounds can be found in patent US7560568B2, “Thiazole compounds” (SmithKline Beecham Corporation, priority 2004, dated 2009).

The target in assay [1] is T1, PLK1 kinase domain (Homo sapiens, UniProt P53350).
T1 construct: made in house; host or cells: baculovirus infected T. ni cells
The experiment in a line: Assay for Inhibition of PLK1 (SPA, 33P-ATP, His-tagged PLK kinase domain). Conditions: 2 nM PLK1 kinase domain, 1 μM ATP, 1.25 hrs at 22° C.; for IC50: read-out: Average pIC50 PLK Enzyme Inhibition (converted). The format is biochemical. Here is the method:
I. Assay for Inhibition of PLK1
A. Preparation of 6× N-terminal His-tagged PLK kinase domain 6× N-terminal His-tagged PLK kinase domain (amino acids 21-346 preceded by MKKGHHHHHHD (SEQ ID:NO. 1) may be prepared from baculovirus infected T. ni cells under polyhedrin promoter control. All subsequent procedures are performed at 4° C. Cells are lysed in 25 mM HEPES, 200 mM NaCl, 25 mM imidazole; pH 8.0. The homogenate is centrifuged at 14K rpm in a SLA-1500 rotor for 40 min and the supernatant filtered through a 1.2 micron filter. The supernatant is loaded onto a Nickel chelating Sepharose (Amersham Pharmacia) column and washed with 25 mM HEPES, 500 mM NaCl, 25 mM imidazole; pH 8.0. The column is then washed with a 16.6% B step where buffer B is 25 mM HEPES, 500 mM NaCl, 300 mM imidazole; pH 8.0. Protein is eluted using a 10-column volume linear gradient from 16.6% B to 100% B. Fractions were pooled using absorbance at 280 nm. PLK is concentrated using a 10 kDa molecular weight cutoff membrane and then loaded onto a Superdex 75 gel filtration (Amersham Pharmacia) column equilibrated in 25 mM HEPES, 1 mM DTT, 500 mM NaCl; pH 8.0. Protein was pooled by absorbance at 280 nm and then quality controlled using mass spectrometry and SDS-PAGE. PLK was aliquoted and stored at −80° C.
B. Enzyme activity +/− inhibitors was determined as follows: Compounds are added to the plate (1 μl in 100% DMSO). DMSO (5% final) and EDTA (62.5 mM final in 20 μL reaction) are used as controls. Reaction Mix is prepared as follows at 22° C.: • 25 mM HEPES, pH 7.2 • 15 mM MgCl2 • 1 μM ATP • 0.05 μCi/well ^33P-γ ATP (10 Ci/mMol) • 1 μM substrate peptide (Biotin-Ahx-SFNDTLDFD) SEQ ID:No. 2. • 0.15 mg/ml BSA • 1 mM DTT • 2 nM PLK1 kinase domain (added last)
Reaction Mix (20 μl) is added per well to each well immediately upon addition of enzyme and incubated 1.25 hrs. at 22° C. The enzymatic reactions are stopped with 50 μl of SPA bead/EDTA mix (50 mM EDTA, 4.0 mg/ml Streptavidin-coated SPA beads in Standard Dulbecco's PBS (without Mg^2+ and Ca^2+), 50 μM ATP). Plates are sealed with clear plastic seals, spun at 500×g for 1 min. or settled overnight, and plates counted in Packard TopCount for 30 seconds/well.
In Table 1, +=pIC50<5; ++=pIC50 5-7; +++=pIC50>7.

The subject of assay [2] is H460 lung tumor cell line. The experiment in a line: Methylene Blue Growth Inhibition Assay, H460. Conditions: H460, 3 days, read-out: MeB Cell Line IC50. The format is cell-based, human. How it is done: (§1) II. Methylene Blue Growth Inhibition Assay
(§2) Normal Human foreskin fibroblasts (HFF) and human colon (HCT116, RKO), lung (H460), prostate (PC3), and breast tumor (MCF7) cell lines are cultured in high glucose DMEM (Life Technologies) containing 10% fetal bovine serum (FBS) at 37° C. in a humidified 10% CO2, 90% air incubator. Cells are harvested using trypsin/EDTA, counted using a haemocytometer, and plated in 100 μl of the appropriate media, at the following densities, in a 96-well tissue culture plate (Falcon 3075): HFF 5,000 cells/well, HCT116 3,000 cells/well, RKO 2,500 cells/well, H460 2,000 cells/well, PC3 8,000 cells/well, MCF7 4,000 cells/well. The next day, compounds are diluted in DMEM containing 100 μg/ml gentamicin, at twice the final required concentration, from 10 mM stock solutions in DMSO. 100 μl/well of these dilutions are added to the 100 μl of media currently on the cell plates. Medium containing 0.6% DMSO is added to control wells. Compounds diluted in DMEM are added to all cell lines. The final concentration of DMSO in all wells is 0.3%. Cells are incubated at 37° C., 10% CO2 for 3 days. Medium is removed by aspiration. Cell biomass is estimated by staining cells with 80 μl per well methylene blue (Sigma M9140, 0.5% in 50:50 ethanol:water), and incubation at room temperature for at least 30 minutes. Stain is removed, and the plates rinsed by immersion in water, and air-dried. To release stain from the cells 100 μl of solubilization solution is added (1% N-lauroyl sarcosine, Sodium salt, Sigma L5125, in PBS), and plates are left at room temperature for about 30 minutes. Optical density at 620 nm is measured on a microplate reader. Percent inhibition of cell growth is calculated relative to vehicle treated control wells. Concentration of compound that inhibits 50% of cell growth (IC50) is interpolated using nonlinear regression (Levenberg-Marquardt) and the equation, y=Vmax*(1−(x/(K+x)))+Y2, where Y2=0 and “K” is equal to the IC50.
(§3) In Table 1, +=10−>30 μM; ++=1-10 μM: +++=<1 μM.

The test system of assay [3] is HCT116 colon tumor cell line. The experiment in a line: Methylene Blue Growth Inhibition Assay, HCT116. In kind it is cell-based, human. Conditions: HCT116, 3 days, read-out: MeB Cell Line IC50. Here is the method: as §1, §2, §3
The subject of assay [4] is Normal Human foreskin fibroblasts (HFF). Nature of the assay: Methylene Blue Growth Inhibition Assay, HFF. Conditions: 3 days, read-out: MeB Cell Line IC50. The format is cell-based. Here is the method:
as §1, §2, §3

Assay [5] deals with MCF7 breast tumor cell line. The experiment in a line: Methylene Blue Growth Inhibition Assay, MCF7. In kind it is cell-based, human. Conditions: MCF7, 3 days, read-out: MeB Cell Line IC50. Here is the method: as §1, §2, §3
For assay [6], the system named is PC3 prostate tumor cell line. The experiment in a line: Methylene Blue Growth Inhibition Assay, PC3. The format is cell-based, human. Conditions: PC3, 3 days, read-out: MeB Cell Line IC50. Here is the method: as §1, §2, §3
For assay [7], the system named is RKO colon tumor cell line. Nature of the assay: Methylene Blue Growth Inhibition Assay, RKO. In kind it is cell-based, human. Conditions: 3 days, read-out: MeB Cell Line IC50. Here is the method:
as §1, §2, §3

Where two headings read alike, the source gives them in different places. Bounds are passed on as bounds.

T1 sequence (P53350 21-346): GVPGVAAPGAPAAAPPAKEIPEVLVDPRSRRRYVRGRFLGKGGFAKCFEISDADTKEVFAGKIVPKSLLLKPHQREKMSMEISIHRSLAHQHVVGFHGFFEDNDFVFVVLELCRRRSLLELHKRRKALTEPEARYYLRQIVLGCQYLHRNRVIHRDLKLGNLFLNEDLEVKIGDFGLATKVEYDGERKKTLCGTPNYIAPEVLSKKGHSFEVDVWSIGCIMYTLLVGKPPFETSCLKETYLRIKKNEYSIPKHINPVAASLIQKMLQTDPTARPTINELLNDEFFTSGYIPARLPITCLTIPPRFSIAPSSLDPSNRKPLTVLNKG

As for “2-(6-Methoxy-1H-benzimidazol-1-yl)-4-({[2-(trifluoromethyl)phenyl]methyl}oxy)-1,3-thiazole-5-carboxamide and 2-(5-methoxy-1H-benzimidazol-1-yl)-4-({[2-(trifluoromethyl)phenyl]methyl}oxy)-1,3-thiazole-5-carboxamide [Example 3]”, in assay [1], the “Average pIC50 PLK Enzyme Inhibition” value is reported as “+++ (+++=pIC50>7)”. Also, the IC50 in assay [2], in assay [3], in assay [4], in assay [5], in assay [6] and in assay [7] was above 10 µM in each case.

On to `NC(=O)c1sc(-n2cnc3ccccc32)nc1OCc1ccccc1C(F)(F)F` [Example 1, 2-(1H-Benzimidazol-1-yl)-4-({[2-(trifluoromethyl)phenyl]methyl}-oxy)-1,3-thiazole-5-carboxamide], for which the IC50 in assay [1] is below 0.1 µM; in assay [2] (Homo sapiens, NCI-H460, 72 h), above 10 µM; in assay [3] (Homo sapiens, HCT-116, 72 h) it was above 10 µM; in assay [4] (Homo sapiens, 72 h), above 10 µM; in assay [5] (Homo sapiens, 72 h), above 10 µM; in assay [6] (Homo sapiens, 72 h), above 10 µM. For the same compound, in assay [7] (Homo sapiens, 72 h), the IC50 was above 10 µM.

On to `NC(=O)c1sc(-n2cnc3ccc(Cl)cc32)nc1OCc1ccccc1C(F)(F)F` [Example 2A, 2-(6-Chloro-1H-benzimidazol-1-yl)-4-({[2-(trifluoromethyl)phenyl]methyl}oxy)-1,3-thiazole-5-carboxamide], for which the IC50 is below 0.1 µM in assay [1]; above 10 µM in assay [2] (Homo sapiens, NCI-H460, 72 h); above 10 µM in assay [3] (Homo sapiens, HCT-116, 72 h); above 10 µM in assay [4] (Homo sapiens, 72 h); 1 to 10 µM in assay [5] (Homo sapiens, 72 h); above 10 µM in assay [6] (Homo sapiens, 72 h). Also, the IC50 in assay [7] (Homo sapiens, 72 h) is 1 to 10 µM.

Take `NC(=O)c1sc(-n2cnc3cc(Cl)ccc32)nc1OCc1ccccc1C(F)(F)F` [Example 2B, 2-(5-chloro-1H-benzimidazol-1-yl)-4-({[2-(trifluoromethyl)phenyl]methyl}oxy)-1,3-thiazole-5-carboxamide]: the IC50 in assay [1] is 0.1 to 10 µM; in assay [2] (Homo sapiens, NCI-H460, 72 h), above 10 µM; in assay [3] (Homo sapiens, HCT-116, 72 h) it was above 10 µM; in assay [4] (Homo sapiens, 72 h), above 10 µM; in assay [5] (Homo sapiens, 72 h) it was above 10 µM; in assay [6] (Homo sapiens, 72 h), above 10 µM. The IC50 in assay [7] (Homo sapiens, 72 h) is above 10 µM.

For the compound `NC(=O)c1sc(-n2cnc3ccc(F)cc32)nc1OCc1ccccc1C(F)(F)F` [Example 4, 2-(6-Fluoro-1H-benzimidazol-1-yl)-4-({[2-(trifluoromethyl)phenyl]methyl}oxy)-1,3-thiazole-5-carboxamide], the IC50 is 0.1 to 10 µM in assay [1]; above 10 µM in assay [2] (Homo sapiens, NCI-H460, 72 h); above 10 µM in assay [3] (Homo sapiens, HCT-116, 72 h); above 10 µM in assay [4] (Homo sapiens, 72 h); above 10 µM in assay [5] (Homo sapiens, 72 h); above 10 µM in assay [6] (Homo sapiens, 72 h). Moreover, the IC50 in assay [7] (Homo sapiens, 72 h) was above 10 µM.

For `Cc1cc2ncn(-c3nc(OCc4ccccc4C(F)(F)F)c(C(N)=O)s3)c2cc1C` [Example 5, 2-(5,6-Dimethyl-1H-benzimidazol-1-yl)-4-({[2-(trifluoromethyl)phenyl]methyl}oxy)-1,3-thiazole-5-carboxamide], the IC50 in assay [1] was 0.1 to 10 µM; in assay [2] (Homo sapiens, NCI-H460, 72 h) it was above 10 µM; in assay [3] (Homo sapiens, HCT-116, 72 h) it was above 10 µM; in assay [4] (Homo sapiens, 72 h) it was above 10 µM; in assay [5] (Homo sapiens, 72 h), above 10 µM; in assay [6] (Homo sapiens, 72 h) it was above 10 µM. The IC50 in assay [7] (Homo sapiens, 72 h) was above 10 µM.

Consider `COc1cc2ncn(-c3nc(OCc4ccccc4C(F)(F)F)c(C(N)=O)s3)c2cc1OC` [Example 6, 2-[5,6-Bis(methyloxy)-1H-benzimidazol-1-yl]-4-({[2-(trifluoromethyl)phenyl]-methyl}oxy)-1,3-thiazole-5-carboxamide], for which the IC50 is below 0.1 µM in assay [1]; 1 to 10 µM in assay [2] (Homo sapiens, NCI-H460, 72 h); 1 to 10 µM in assay [3] (Homo sapiens, HCT-116, 72 h); above 10 µM in assay [4] (Homo sapiens, 72 h); 1 to 10 µM in assay [5] (Homo sapiens, 72 h); 1 to 10 µM in assay [6] (Homo sapiens, 72 h). Further, the IC50 in assay [7] (Homo sapiens, 72 h) lay within 1 to 10 µM.
